Laboratory results from publication PMC5218480 (PLoS ONE, 2017).

System: MV-4-11 cells
Assay: Gene expression microarray analysis (Affymetrix PrimeView) and GSEA
Format: cell-based, human
Parameters: RFU PODN (11730768_x_at) / Fold change /veh PODN (11730768_x_at) / RFU LINC00158 (11744669_a_at) / Fold change /veh LINC00158 (11744669_a_at) / RFU DUSP10 (11751237_a_at) / Fold change /veh DUSP10 (11751237_a_at) / RFU ID3 (11757404_x_at) / Fold change /veh ID3 (11757404_x_at) / RFU PLEKHG5 (11737974_s_at) / Fold change /veh PLEKHG5 (11737974_s_at) / RFU LRRC4B (11730491_at) / Fold change /veh LRRC4B (11730491_at) / RFU GIMAP4 (11747438_a_at) / Fold change /veh GIMAP4 (11747438_a_at) / RFU KRT8 (11758183_x_at) / Fold change /veh KRT8 (11758183_x_at) / RFU CNN1 (11734310_a_at) / Fold change /veh CNN1 (11734310_a_at) / RFU VPS37D (11726825_at) / Fold change /veh VPS37D (11726825_at) / RFU C10orf10 (11716522_x_at) / Fold change /veh C10orf10 (11716522_x_at) / RFU KIR2DL2 /// KIR2DL4 /// KIR2DL5A /// KIR2DL5B /// KIR2DS1 /// KIR2DS2 /// KIR2DS3 /// KIR2DS4 /// KIR3DL3 /// KIR3DL3 /// KIR3DS1 (11738374_at) / Fold change /veh KIR2DL2 /// KIR2DL4 /// KIR2DL5A /// KIR2DL5B /// KIR2DS1 /// KIR2DS2 /// KIR2DS3 /// KIR2DS4 /// KIR3DL3 /// KIR3DL3 /// KIR3DS1 (11738374_at) / RFU C1QL1 (11718748_at) / Fold change /veh C1QL1 (11718748_at) / RFU TMPRSS4 (11747572_a_at) / Fold change /veh TMPRSS4 (11747572_a_at) / RFU HAMP (11756126_x_at) / Fold change /veh HAMP (11756126_x_at) / RFU RNFT2 (11725882_a_at) / Fold change /veh RNFT2 (11725882_a_at) / RFU NR4A2 (11747474_a_at) / Fold change /veh NR4A2 (11747474_a_at) / RFU ABCC12 (11746883_a_at) / Fold change /veh ABCC12 (11746883_a_at) / RFU TMEM136 (11760407_x_at) / Fold change /veh TMEM136 (11760407_x_at) / RFU CLDN22 /// WWC2 (11732394_at) / Fold change /veh CLDN22 /// WWC2 (11732394_at) / RFU HLA-DPB1 (11760878_x_at) / Fold change /veh HLA-DPB1 (11760878_x_at) / RFU SPINT1 (11716480_a_at) / Fold change /veh SPINT1 (11716480_a_at) / RFU GAP43 (11754022_s_at) / Fold change /veh GAP43 (11754022_s_at) / RFU A4GNT (11735810_at) / Fold change /veh A4GNT (11735810_at) / RFU PRB3 (11715151_x_at) / Fold change /veh PRB3 (11715151_x_at) / RFU TUBB4B (11761932_at) / Fold change /veh TUBB4B (11761932_at) / RFU CAPN14 (11732068_a_at) / Fold change /veh CAPN14 (11732068_a_at) / RFU TMCC2 (11721928_a_at) / Fold change /veh TMCC2 (11721928_a_at) / RFU IRGQ (11745062_a_at) / Fold change /veh IRGQ (11745062_a_at) / RFU FAM174B (11720279_a_at) / Fold change /veh FAM174B (11720279_a_at) / RFU TMPRSS4 (11748680_a_at) / Fold change /veh TMPRSS4 (11748680_a_at) / RFU FAM212B (11763350_a_at) / Fold change /veh FAM212B (11763350_a_at) / RFU PLEKHG5 (11743358_a_at) / Fold change /veh PLEKHG5 (11743358_a_at) / RFU ZSCAN30 (11745921_a_at) / Fold change /veh ZSCAN30 (11745921_a_at) / RFU CMKLR1 (11741424_a_at) / Fold change /veh CMKLR1 (11741424_a_at) / RFU LOC101060620 /// MAPK8IP1 (11723275_at) / Fold change /veh LOC101060620 /// MAPK8IP1 (11723275_at) / RFU SPTSSB (11747773_x_at) / Fold change /veh SPTSSB (11747773_x_at) / RFU PRSS12 (11739890_at) / Fold change /veh PRSS12 (11739890_at) / RFU BIN1 (11741810_x_at) / Fold change /veh BIN1 (11741810_x_at) / RFU WNT11 (11732464_a_at) / Fold change /veh WNT11 (11732464_a_at) / RFU C10orf10 (11716521_a_at) / Fold change /veh C10orf10 (11716521_a_at) / RFU C5orf56 (11738089_at) / Fold change /veh C5orf56 (11738089_at) / RFU CYB561 (11721691_x_at) / Fold change /veh CYB561 (11721691_x_at) / RFU ANKRD19P (11752326_a_at) / Fold change /veh ANKRD19P (11752326_a_at) / RFU OR2T12 /// OR2T33 /// OR2T8 (11738714_s_at) / Fold change /veh OR2T12 /// OR2T33 /// OR2T8 (11738714_s_at) / RFU VCAN (11748164_a_at) / Fold change /veh VCAN (11748164_a_at) / RFU JSRP1 (11732532_at) / Fold change /veh JSRP1 (11732532_at) / RFU KRTAP10-11 (11738290_x_at) / Fold change /veh KRTAP10-11 (11738290_x_at) / RFU MYO3A (11730013_a_at) / Fold change /veh MYO3A (11730013_a_at) / RFU EBF3 (11725865_a_at) / Fold change /veh EBF3 (11725865_a_at) / RFU CAMK2N1 (11719241_x_at) / Fold change /veh CAMK2N1 (11719241_x_at) / RFU C5orf56 (11738088_a_at) / Fold change /veh C5orf56 (11738088_a_at) / RFU OLFML3 (11715873_a_at) / Fold change /veh OLFML3 (11715873_a_at) / RFU LOC100653217 /// NTM (11731650_a_at) / Fold change /veh LOC100653217 /// NTM (11731650_a_at) / RFU MAPK11 (11762145_a_at) / Fold change /veh MAPK11 (11762145_a_at) / RFU FIZ1 (11724087_x_at) / Fold change /veh FIZ1 (11724087_x_at) / RFU OASL (11726364_x_at) / Fold change /veh OASL (11726364_x_at) / RFU SOX15 (11748057_x_at) / Fold change /veh SOX15 (11748057_x_at) / RFU CD79A (11719716_a_at) / Fold change /veh CD79A (11719716_a_at) / RFU HIST1H1D (11736915_at) / Fold change /veh HIST1H1D (11736915_at) / RFU CASKIN2 (11723855_a_at) / Fold change /veh CASKIN2 (11723855_a_at) / RFU LOC730098 (11760151_x_at) / Fold change /veh LOC730098 (11760151_x_at) / RFU OR4N2 (11742367_at) / Fold change /veh OR4N2 (11742367_at) / RFU PRRT2 (11749266_a_at) / Fold change /veh PRRT2 (11749266_a_at) / RFU SNX32 (11753110_a_at) / Fold change /veh SNX32 (11753110_a_at) / RFU CDHR5 (11726645_a_at) / Fold change /veh CDHR5 (11726645_a_at) / RFU RCAN1 (11760418_a_at) / Fold change /veh RCAN1 (11760418_a_at) / RFU FAM167A (11723789_a_at) / Fold change /veh FAM167A (11723789_a_at) / RFU FAM26E (11764081_at) / Fold change /veh FAM26E (11764081_at) / RFU ISYNA1 (11749810_s_at) / Fold change /veh ISYNA1 (11749810_s_at) / RFU ACY1 (11761880_at) / Fold change /veh ACY1 (11761880_at) / RFU 11764098_at / Fold change /veh 11764098_at / RFU SAMD14 (11745864_x_at) / Fold change /veh SAMD14 (11745864_x_at) / RFU NPB (11741838_a_at) / Fold change /veh NPB (11741838_a_at) / RFU TMPRSS6 (11731388_a_at) / Fold change /veh TMPRSS6 (11731388_a_at) / RFU KRTAP10-2 (11738614_at) / Fold change /veh KRTAP10-2 (11738614_at) / RFU ARHGAP8 /// PRR5-ARHGAP8 (11727945_x_at) / Fold change /veh ARHGAP8 /// PRR5-ARHGAP8 (11727945_x_at) / RFU KRTAP5-7 /// NADSYN1 (11734609_at) / Fold change /veh KRTAP5-7 /// NADSYN1 (11734609_at) / RFU RASL12 (11751679_a_at) / Fold change /veh RASL12 (11751679_a_at) / RFU CDKN2B (11736163_a_at) / Fold change /veh CDKN2B (11736163_a_at) / RFU PRF1 (11729649_at) / Fold change /veh PRF1 (11729649_at) / RFU, ZNF638 /// ZNF638-IT1 / Fold change vs veh, ZNF638 /// ZNF638-IT1 / RFU, PANK3 / Fold change vs veh, PANK3 / RFU, SH3YL1 / Fold change vs veh, SH3YL1 / RFU, ZEB2 / Fold change vs veh, ZEB2 / RFU, NRIP1 / Fold change vs veh, NRIP1 / RFU, PTTG1IP / Fold change vs veh, PTTG1IP / RFU, CAPN2 / Fold change vs veh, CAPN2 / RFU, MED14 / Fold change vs veh, MED14 / RFU, SNORA58 / Fold change vs veh, SNORA58 / RFU, C1orf63 / Fold change vs veh, C1orf63 / RFU, LRRFIP1 / Fold change vs veh, LRRFIP1 / RFU, NDUFAF7 / Fold change vs veh, NDUFAF7 / RFU, SLC12A2 / Fold change vs veh, SLC12A2 / RFU, IBTK / Fold change vs veh, IBTK / RFU, ESF1 / Fold change vs veh, ESF1 / Fold change vs veh, TMEM50B / RFU, TAOK1 / Fold change vs veh, TAOK1 / RFU, ACBD3 / Fold change vs veh, ACBD3 / RFU, TMA16 / Fold change vs veh, TMA16 / RFU, RWDD3 / Fold change vs veh, RWDD3 / RFU, BCAT1 / Fold change vs veh, BCAT1 / RFU, EDEM3 / Fold change vs veh, EDEM3 / RFU, TMEM33 / Fold change vs veh, TMEM33 / RFU, WDR75 / Fold change vs veh, WDR75 / RFU, AHCTF1 / Fold change vs veh, AHCTF1 / RFU, TFRC / Fold change vs veh, TFRC / RFU, ZDHHC17 / Fold change vs veh, ZDHHC17 / RFU, NOM1 / Fold change vs veh, NOM1 / RFU, ARL8B / Fold change vs veh, ARL8B / RFU, ZBTB11 / Fold change vs veh, ZBTB11 / RFU, TAMM41 / Fold change vs veh, TAMM41 / RFU, KIAA1704 /// LOC100996395 / Fold change vs veh, KIAA1704 /// LOC100996395 / RFU, ING1 / Fold change vs veh, ING1 / RFU, TRMT61B / Fold change vs veh, TRMT61B / RFU, FUBP3 / Fold change vs veh, FUBP3 / RFU, TP53 / Fold change vs veh, TP53 / RFU, TNKS2 / Fold change vs veh, TNKS2 / RFU, ZFP14 / Fold change vs veh, ZFP14 / RFU, ACTR2 / Fold change vs veh, ACTR2 / RFU, PPP3R1 / Fold change vs veh, PPP3R1 / RFU, PIK3R1 / Fold change vs veh, PIK3R1 / RFU, HNRNPA1 / Fold change vs veh, HNRNPA1 / RFU, RNF170 / Fold change vs veh, RNF170 / RFU, ZNF28 / Fold change vs veh, ZNF28 / RFU, RNGTT / Fold change vs veh, RNGTT / RFU, OGT / Fold change vs veh, OGT / RFU, BRD1 / Fold change vs veh, BRD1 / RFU, MARS / Fold change vs veh, MARS / RFU, ZNF655 / Fold change vs veh, ZNF655 / RFU, FAHD1 / Fold change vs veh, FAHD1 / RFU, BDP1 / Fold change vs veh, BDP1 / RFU, LRRCC1 / Fold change vs veh, LRRCC1 / RFU, ARID1A / Fold change vs veh, ARID1A / RFU, ZNF146 / Fold change vs veh, ZNF146 / RFU, ZNF330 / Fold change vs veh, ZNF330 / RFU, GPN3 / Fold change vs veh, GPN3 / RFU, C9orf123 / Fold change vs veh, C9orf123 / RFU, N4BP2L2 / Fold change vs veh, N4BP2L2 / RFU, ARFIP1 / Fold change vs veh, ARFIP1 / RFU, FAM179B / Fold change vs veh, FAM179B / RFU, BCL10 / Fold change vs veh, BCL10 / RFU, UHRF1BP1L / Fold change vs veh, UHRF1BP1L / RFU, BET1 / Fold change vs veh, BET1 / RFU, CNOT2 / Fold change vs veh, CNOT2 / RFU, ZNF268 / Fold change vs veh, ZNF268 / Fold change vs veh, ZNF507 / RFU, DGCR2 / Fold change vs veh, DGCR2 / RFU, WDSUB1 / Fold change vs veh, WDSUB1 / Fold change vs veh, HSP90B1 /// MIR3652 / RFU, ADSS / Fold change vs veh, ADSS / RFU, GK / Fold change vs veh, GK / RFU, ZNF148 / Fold change vs veh, ZNF148 / RFU, TAF9 / Fold change vs veh, TAF9 / RFU, SLC1A5 / Fold change vs veh, SLC1A5 / RFU, SLMO2 / Fold change vs veh, SLMO2 / RFU, ABCC4 / Fold change vs veh, ABCC4 / RFU, LOC101060439 /// RAP1B / Fold change vs veh, LOC101060439 /// RAP1B / RFU, RFX7 / Fold change vs veh, RFX7 / RFU, GTPBP10 / Fold change vs veh, GTPBP10 / RFU, CNEP1R1 / Fold change vs veh, CNEP1R1 / RFU, BIVM-ERCC5 /// ERCC5 / Fold change vs veh, BIVM-ERCC5 /// ERCC5 / RFU, ILF3 / Fold change vs veh, ILF3 / RFU 11762660_at / Fold change /veh 11762660_at / RFU VCAN (11757783_s_at) / Fold change /veh VCAN (11757783_s_at) / RFU DDX43 (11728927_at) / Fold change /veh DDX43 (11728927_at) / RFU KRT8 (11758188_x_at) / Fold change /veh KRT8 (11758188_x_at) / RFU NKD1 (11759106_at) / Fold change /veh NKD1 (11759106_at) / RFU SRD5A1 (11742802_a_at) / Fold change /veh SRD5A1 (11742802_a_at) / RFU TPSAB1 /// TPSB2 (11721975_s_at) / Fold change /veh TPSAB1 /// TPSB2 (11721975_s_at) / RFU GSTM3 (11746129_a_at) / Fold change /veh GSTM3 (11746129_a_at) / RFU IL23R (11737362_x_at) / Fold change /veh IL23R (11737362_x_at) / RFU TMEM51 (11727254_a_at) / Fold change /veh TMEM51 (11727254_a_at) / RFU PIWIL2 (11732686_x_at) / Fold change /veh PIWIL2 (11732686_x_at) / RFU ORM1 (11744905_x_at) / Fold change /veh ORM1 (11744905_x_at) / RFU CCDC152 (11743942_at) / Fold change /veh CCDC152 (11743942_at) / RFU ECM1 (11717891_a_at) / Fold change /veh ECM1 (11717891_a_at) / RFU IL23R (11748794_a_at) / Fold change /veh IL23R (11748794_a_at) / RFU TNFAIP8L3 (11732012_x_at) / Fold change /veh TNFAIP8L3 (11732012_x_at) / RFU MBOAT4 (11741988_at) / Fold change /veh MBOAT4 (11741988_at) / RFU 11764193_at / Fold change /veh 11764193_at / RFU TMEM53 (11763286_at) / Fold change /veh TMEM53 (11763286_at) / RFU MAGEB2 (11727129_at) / Fold change /veh MAGEB2 (11727129_at) / RFU TMEM200A (11744735_a_at) / Fold change /veh TMEM200A (11744735_a_at) / RFU CCDC152 (11751479_a_at) / Fold change /veh CCDC152 (11751479_a_at) / RFU FAM211A (11726209_a_at) / Fold change /veh FAM211A (11726209_a_at) / RFU RGS16 (11746705_a_at) / Fold change /veh RGS16 (11746705_a_at) / RFU VCAN (11755009_s_at) / Fold change /veh VCAN (11755009_s_at) / RFU RHOB (11743442_s_at) / Fold change /veh RHOB (11743442_s_at) / RFU RGS16 (11720943_a_at) / Fold change /veh RGS16 (11720943_a_at) / RFU RGS16 (11720944_at) / Fold change /veh RGS16 (11720944_at) / RFU, VPS4B / Fold change vs veh, VPS4B / RFU, CREB1 / Fold change vs veh, CREB1 / RFU, DNAJC13 / Fold change vs veh, DNAJC13 / RFU, GNAQ / Fold change vs veh, GNAQ / RFU, CDK5R1 / Fold change vs veh, CDK5R1 / RFU, ZRANB3 / Fold change vs veh, ZRANB3 / RFU, CUL4A / Fold change vs veh, CUL4A / RFU, CCNY / Fold change vs veh, CCNY / RFU, UFL1 / Fold change vs veh, UFL1 / RFU, COG3 / Fold change vs veh, COG3 / RFU, DIAPH2 / Fold change vs veh, DIAPH2 / RFU, SKA2 / Fold change vs veh, SKA2 / RFU, AFF3 / Fold change vs veh, AFF3 / RFU, LMF1 / Fold change vs veh, LMF1 / RFU, IPO11 / Fold change vs veh, IPO11 / RFU, DFFB / Fold change vs veh, DFFB / RFU, FOXP1 / Fold change vs veh, FOXP1 / RFU, CARD8 / Fold change vs veh, CARD8 / RFU, STRN3 / Fold change vs veh, STRN3 / RFU, ADK / Fold change vs veh, ADK / RFU, RASSF2 / Fold change vs veh, RASSF2 / RFU, WIPF1 / Fold change vs veh, WIPF1 / RFU, LARP1B / Fold change vs veh, LARP1B / RFU, RASA1 / Fold change vs veh, RASA1 / RFU, RB1 / Fold change vs veh, RB1 / RFU, PPFIA1 / Fold change vs veh, PPFIA1 / RFU, MAT2A / Fold change vs veh, MAT2A / RFU, CCT5 / Fold change vs veh, CCT5 / RFU, WDR92 / Fold change vs veh, WDR92 / RFU, CUX1 / Fold change vs veh, CUX1 / RFU, TTC7A / Fold change vs veh, TTC7A / RFU, TMEM135 / Fold change vs veh, TMEM135 / RFU, DEPTOR / Fold change vs veh, DEPTOR / RFU, CPM / Fold change vs veh, CPM / RFU, DNAJB6 / Fold change vs veh, DNAJB6 / RFU, CACNA2D3 / Fold change vs veh, CACNA2D3 / RFU, DTX4 / Fold change vs veh, DTX4 / RFU, TFCP2 / Fold change vs veh, TFCP2 / RFU, GMCL1 /// GMCL1P1 / Fold change vs veh, GMCL1 /// GMCL1P1 / RFU, AEBP2 / Fold change vs veh, AEBP2 / RFU, SNHG1 /// SNORD22 /// SNORD25 /// SNORD26 /// SNORD27 /// SNORD28 /// SNORD29 /// SNORD31 / Fold change vs veh, SNHG1 /// SNORD22 /// SNORD25 /// SNORD26 /// SNORD27 /// SNORD28 /// SNORD29 /// SNORD31 / Fold change (Aza/veh), C12orf56 (ProbeSet 11735607_a_at) / Fold change (ACY-1035/veh), C12orf56 (ProbeSet 11735607_a_at) / Fold change (Aza/veh), FGFR1OP (ProbeSet 11751329_s_at) / Fold change (ACY-1035/veh), FGFR1OP (ProbeSet 11751329_s_at) / Fold change (Aza/veh), VPS36 (ProbeSet 11739960_a_at) / Fold change (ACY-1035/veh), VPS36 (ProbeSet 11739960_a_at) / RFU SYPL1 (11715823_x_at) / Fold change /veh SYPL1 (11715823_x_at) / RFU IGFBP7 (11715501_s_at) / Fold change /veh IGFBP7 (11715501_s_at) / RFU REEP3 (11722064_at) / Fold change /veh REEP3 (11722064_at) / RFU IGLL1 (11728026_x_at) / Fold change /veh IGLL1 (11728026_x_at): dose or concentration left out as unconfirmed
Conditions: ProbeSet 11720269_a_at; LIST B

Compound: Nc1ccc(-c2cccs2)cc1NC(=O)c1ccc2c(c1)cc(C1CC1)n2CCN1CCOCC1 [ACY-1035]
- Fold change vs veh, IBTK: 0.93
